{"source": "patent US6844336B2", "about": "“4-fluoroalkyl-2h-benzopyrans with anti-estogenic activity” (Schering AG, priority 2000, dated 2005)", "tested_on": "density of the trabecular bone in the proximal tibia of ovariectomized rats", "assay": "Bone studies in ovariectomized rats (bone density of proximal tibia by pQCT)", "set-up": "species or system rat", "conditions": "three-month-old ovariectomized female rats, once daily for 28 days, 0.1 mg/kg/animal/day p.o., pQCT ex vivo", "description": "Three-month-old female rats are ovariectomized and treated once daily with the test compound immediately after the operation for 28 days. The administration is carried out subcutaneously in arachis oil/ethanol or it is carried out perorally. The animals are sacrificed on the day after the last administration, and tibiae as well as uteri are removed. The uteri are weighed, fixed and worked up for histological studies. The determination of the bone density is carried out ex vivo on prepared long bones using pQCT (quantitative computer tomography). The measurements are performed at a distance of 4-6 mm from the ball of the joint of the proximal tibia.\nBy the ovariectomy, the density of the trabecular bone in the measured area is reduced by about 400 mg of Ca^2+/cm^3 to about 300 mg of Ca^2+/cm^3. By the treatment with a compound of general formula I according to this invention (dosage of 0.1 mg/kg/animal/day p.o.), the degradation of the bone density in the proximal tibia is prevented or inhibited."}
{"molecule": "Oc1ccc(C2=C(C(F)(F)F)c3ccc(O)cc3OC2c2ccc(OCCN3CCCCC3)cc2)cc1", "note": "(single isomer, unassigned; (+)) [Example 1, (+)-7-Hydroxy-3-(4-hydroxyphenyl)-2-[4-(2-piperidin-1-ylethoxy)-penyl]-4(trifluoromethyl)-2H-1-benzopyran]", "values": [{"measurement": "bone protection in comparison to the control that was subjected to a sham operation", "value": 73, "unit": "%"}]}
